Test results: US12310970B2, “Compounds and methods for treating or preventing anterior segment ocular disorders and/or retinal degenerations” (YALE UNIVERSITY, priority 2018, dated 2025)
Values after ≈ are worked out from the molar mass of the structure shown.

Tests used:
[1] = in water; cited from earlier work
[2] = Solubility / dissolution in aqueous media; format: physicochemical
Method: 2.00 g HPBCD was dissolved in 4 mL deionized and filtered water by slow inversion/rotation. […] The volume was adjusted to 5.00 mL to provide 5.00 mL of a 40% clear solution by weight. To the 5.00 mL solution of 40% HPBCD was added 175 mg ciclopirox powder, and the vial was sealed and placed under slow rotary inversion to dissolve the solid. […] This 35 mg/mL solution was easily filtered through a 0.22 um syringe filter (MILLEX GV, PVDF membrane).
To the 5.00 mL solution of 40% HPBCD was added 175 mg (0.844 mmol, MW 207.3) ciclopirox powder and the vial sealed and placed under slow rotary inversion to dissolve the solid. […] This 35 mg/mL solution was easily filtered through a 0.22 um syringe filter (MILLEX GV, PVDF membrane).

Row | SMILES | solubility limit [1] | solubility ([2]; aqueous buffer, pH 7.4 phosphate buffer (no saline)) [µg/mL] | concentration completely dissolved ([2]; in 40% HPBCD, after 1 hour mixing) [µg/mL]
1 | OC[C@H]1O[C@@H]2O[C@H]3[C@H](O)[C@@H](O)[C@@H](O[C@H]4[C@H](O)[C@@H](O)[C@@H](O[C@H]5[C@H](O)[C@@H](O)[C@@H](O[C@H]6[C@H](O)[C@@H](O)[C@@H](O[C@H]7[C@H](O)[C@@H](O)[C@@H](O[C@H]8[C@H](O)[C@@H](O)[C@@H](O[C@H]9[C@H](O)[C@@H](O)[C@@H](O[C@H]1[C@H](O)[C@H]2O)O[C@@H]9CO)O[C@@H]8CO)O[C@@H]7CO)O[C@@H]6CO)O[C@@H]5CO)O[C@@H]4CO)O[C@@H]3CO [gamma cyclodextrin] | about 23.2 mg/mL |  | 
2 | Cc1cc(C2CCCCC2)n(O)c(=O)c1 [ciclopirox, 6-cyclohexyl-1-hydroxy-4-methyl-2(1H)-pyridone] |  | 1000 (≈ 4.82 mM) | 35000
